SMILES strings stand for the structures.

This data set can be described thus: gradient 5% acetonitrile 3 min, to 50% in 2 min, to 85% in 15 min, held 3 min, 100 µL/min. To be noted: column: Zorbax Extend-C18 2.1 x 50 mm; eluents: water / acetonitrile, 0.1% formic acid. In short, it runs like this: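 In both positive and negative ionization mode, a quadrupole time-of-flight mass spectrometer coupled to HPLC analyzed pure standards run in mixtures of ~100 molecules. The Zorbax Extend-C18 column (2.1 × 50 mm, 1.8 μm) was operated at 100 μL/min with water and acetonitrile, each containing 0.1% formic acid. The dead volume was 40 μL and the dwell volume 900 μL. Retention time came from adduct peaks that were computationally picked and individually inspected by hand.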
`CC(=O)Nc1ccc(C(=O)N2CCN(c3cc(-c4cccs4)[nH]n3)CC2)cc1` came in with an RP-LC retention time of 641 s.
The figure for `CCC(=O)NCc1nc2c(n1C)CN(S(=O)(=O)c1ccc(F)c(F)c1)CC2` is 571 s; for `c1cc(-n2nnc3cnccc32)ccn1` it is 637 s; for `CCc1cc(C(=O)N2CCCC2)nc2cc(-c3cccs3)nn12` it is 655 s.
The figure for `CNC(=O)c1cc(C(=O)c2ccc3nc(Nc4ccc(Cl)cc4)[nH]c3c2)ccn1` is 669 s.
The figure for `O=C(NC1CCCCC1)N1CCC2(CC1)NCc1ccccc1-n1ccnc12` is 608 s; for `COCCNC(=O)c1nc2cccnc2n(C)c1=O` it is 585 s; for `O=C(NCc1ccccc1C(F)(F)F)c1cn2c(n1)CCCC2` it is 640 s.
Compound `Cc1[nH]c(C(=O)N2CCC(CC(=O)N3CCN(c4ccccc4)CC3)CC2)c(C)c1C(=O)OC(C)C` yielded an RP-LC retention time of 939 s.
The compound `CCCCOc1ccc(-c2cc3c4nnc(CCC(=O)NCc5ccc(F)cc5)n4ccn3n2)cc1` yielded an RP-LC retention time of 952 s.
In turn, `O=C(NCCc1c[nH]c2ccccc12)C1CCN(c2ncnc3c2oc2ccccc23)CC1` gave an RP-LC retention time of 722 s.
The compound `CCN(C)C(=O)C1CN(C(=O)c2cccs2)CC1c1cccc(C(F)(F)F)c1` (stereo unspecified) showed an RP-LC retention time of 823 s.
Next, `CSc1cccc(NC(=O)c2nnn(-c3ccccc3)c2C)c1`: 1060 s; `Cn1c(CCNC(=O)c2ccc(F)c(F)c2)nc2cccnc21`: 617 s; `COCCN1C(=O)c2ccccc2C(C(=O)Nc2cccnc2)C1c1cccs1` (stereo unspecified): 581 s.
For `O=C1CCc2cc(NS(=O)(=O)Cc3cccc(Cl)c3)ccc2N1`, the RP-LC retention time was found to be 938 s.
The figure for `CC1=C(c2ccc(C)c(C)c2)S(=O)(=O)N=C1N1CCCN(C(=O)C2CCCO2)CC1` (stereo unspecified) is 790 s; for `O=C(NC(c1ccccc1)c1nnc(N2CCOCC2)o1)c1cccc(Cl)c1` (stereo unspecified) it is 796 s; for `Cc1nnc(C2CCCCCN2C(=O)c2ccoc2C)o1` (stereo unspecified) it is 699 s.
Take `Cc1ccc(N2CCN(S(=O)(=O)c3ccc(-c4nnc(C5CCC5)o4)o3)CC2)cc1`: the RP-LC retention time worked out at 1120 s.
With `O=C(NC1CCN(C(=O)N2C[C@H]3C[C@H](C2)[C@H]2CCCC(=O)N2C3)CC1)c1ccc2ccccc2n1`, the RP-LC retention time was determined as 714 s.
As to `O=C(CSc1ccc(Cl)cc1)Nc1nnc(-c2cccc([N+](=O)[O-])c2)s1`, the RP-LC retention time is 968 s.
Next, `COc1ccc(S(=O)(=O)N2CCC3(CC2)CC(C)(O)CCO3)cc1` (stereo unspecified): 752 s; `O=C(CSc1nc2ccccc2o1)Nc1cc(C(F)(F)F)ccc1Cl`: 891 s.
Next, `Cc1ccc(-c2ccc(N3CCCC(C(=O)NCCN4CCC(C)CC4)C3)nn2)cc1` (stereo unspecified): 594 s; `CC[C@H]1[C@@H]2C[C@H]3[C@@H]4N(C)c5ccccc5[C@]45C[C@@H]([C@H]2[C@H]5O)N3[C@@H]1O`: 652 s.
Next, `CS(=O)(=O)N1C[C@H]2CCN(Cc3ccc(Cl)cc3F)C[C@H]21`: 599 s; `Cn1c(N2CCCC(C(=O)NCCCN3CCC(Cc4ccccc4)CC3)C2)cc(=O)n(C)c1=O` (stereo unspecified): 630 s; `COC(=O)[C@@H](N)CSC/C=C(\C)CC/C=C(\C)CCC=C(C)C`: 961 s.
Consider `O=C(Cn1nc2c3cc(-c4ccccc4)nn3ccn2c1=O)NC1CCCCC1`, for which the RP-LC retention time was 873 s.
The figure for `C=CCNC(=O)CCc1c(-c2ccc(F)cc2)nc2ccccn12` is 589 s.

The record behind these values is the METLIN SMRT retention time set (Domingo-Almenara et al. 2019).
